The values that follow come from paper PMC5055185, “Dual pharmacological inhibition of glutathione and thioredoxin systems synergizes to kill colorectal carcinoma stem cells” (Cancer Medicine, 2016).

In test [1] the test system is NRF2 target genes in colorectal CTOSs. As to the kind of experiment: qRT-PCR of NRF2 and TP53 target genes in colorectal CTOSs. Conditions: higher dose (auranofin 4, CB83 25, piperlongumine 10 μmol/L) for 24 h. The class given is cell-based, human. The method, then:
Total RNA was purified using RNAiso Plus (Takara, Osaka, Japan). Reverse transcription was performed using PrimeScript™ with gDNA Eraser (Takara). For quantifying the copy number of each mRNA, we used a StepOne™ Real‐Time PCR System (Applied Biosystems, Waltham, MA) and the Taqman® method. Data were calculated according to the modified delta‐cycle of threshold (ΔCT) method. Normalized Log2 expression was defined as follows: (Log2 expression of a gene of interest) = 30 (arbitrary constant) + (CT of 18S rRNA) − (CT of a gene of interest). We used Log2 parameter for statistical analysis because mRNA expression follows a log‐normal distribution, whereas ΔCT follows normal distribution. A gene‐specific fluorescent probe was designed using a web‐based program (https://qpcr.probefinder.com/organism.jsp). […] Gene‐specific Taqman® probes were purchased from Life Technologies, (Waltham, MA, for Cat#, see Table S1 SpreadSheet2). For PCR, Thunderbird® Probe qPCR mix (Toyobo, Osaka, Japan) was used and the PCR conditions consisted of 40 cycles of two steps (95°C for 15 sec and 60°C for 50 sec).
In order to judge the effect of drug treatments on gene expression, a repeated measures one‐way analysis of variance (ANOVA) was used to determine the variance of Log2 expression from four different groups (untreated, auranofin, CB83, and piperlongumine) using SPSS. Subsequently, the effect of each drug was determined by a paired t test as a post hoc analysis. The P‐values < 0.05 were defined as statistically significant.
In order to estimate NRF2 compensation induced by pharmacological inhibition of TXNRD (auranofin), G6PD (CB83), or GSTπ (piperlongumine), we quantified gene expression of NRF2 target genes. Activation of NRF2 protein was confirmed by NRF2 phosphorylation (Fig. S5A).
For orientation: Quantitative PCR measures a nucleic acid by following its amplification.

The subject of test [2] is HCT116 CRC cell line. Briefly: intracellular ROS, CellROX Deep Red flow cytometry, HCT116. It is filed as cell-based, human. The settings on record: treated 1 h (menadione 100 μmol/L, 30 min). How it is done:
(§1) In order to estimate the effect of each inhibitor described above, intracellular reactive oxygen species (ROS) were measured using CellROX™ Deep Red reagent (Molecular Probes). Briefly, cells were seeded on 6‐well plates at 1 × 10^6 cells per well. After cells reached 90% confluence, cells were treated with designated reagents for 1 h. CellROX™ Deep Red reagent was added at a final concentration of 5 μmol/L to the culture medium and then incubated for 30 min at 37°C. Subsequently, the medium was removed and the cells were washed with PBS and detached using 0.25% trypsin‐EDTA. The resulting fluorescence was measured using a FACS Calibur flow cytometer (Becton Dickinson, Franklin Lakes, NJ). Menadione (100 μmol/L) was added 30 min before CellROX™ Deep Red reagent treatment as a reference ROS inducer. […] CD44v9 positivity of CTOS cells was analyzed as follows: Cancer spheroids were dispersed with serial treatments of TrypLE™ (20 min, GIBCO) and Accumax™ (10 min, Innovative Cell Technologies, San Diego, CA). Cell surface CD44v9 was stained with CD44v9 antibody (Cosmobio) as well as PE‐conjugated anti‐rat IgG2a (Becton Dickinson). The fluorescence was measured using a FACS Calibur flow cytometer (Becton Dickinson). Since CTOSs contained abundant auto‐fluorescent cells, we defined FL2^+FL1^− cells as authentic PE‐positive (Fig. S4). Thus, CD44v9‐positive rate was defined as FL2^+FL1^−/total live cells and CD44v9‐positive fraction was further gated and split between CD44v9^low and CD44v9^high (Fig. S4), to calculate the mean fluorescent intensity of CD44v9^high fraction.
One hour after each drug treatment, cells were stained with CellROX DeepRed and intracellular ROS were quantified with FACS. Upper: histogram of fluorescent signal is represented. Lower. representative mean fluorescent intensity scores are shown. Note that without drug treatment (Control), intracellular ROS is higher in OUMS36 and TIG3 (embryonic fibroblasts) but lower in DLD-1 and HCT116 (CRC cell lines). ROS in DLD-1 was increased by auranofin. ROS in HCT116 was increased by all the inhibitors tested. Menadione was used as a reference chemical to increase ROS.
For orientation: Flow cytometry measures light scatter and fluorescence of single cells or particles in a stream.

Test [3] relates to phosphorylated NRF2 in colorectal CTOSs. Briefly: NRF2 phosphorylation by western blotting, colorectal CTOSs. It is filed as cell-based, human. Conditions: 24 hours, Auranofin 2µM, Piperlongumine 5µM, CB83 12.5 µM. How it is done:
From colorectal CTOS, whole‐cell proteins were dissolved with solubilizer (7 mol/L urea, 2 mol/L thiourea, 2% Triton X‐100, Wako) and the entangled genomic DNA was sheared by sonication for 30 min. Procedures for immunoblotting have been described elsewhere 6, 10. Primary antibodies used in this study are as follows: phosphorylated NRF2 from Abcam (#76026) and Histone H3 from Cell Signaling Technologies (#4499, Danvers, MA). Phosphorylation of NRF2 is well correlated with nuclear accumulation in HCCs 6. Representative data are shown in the figures; all experiments were reproduced at least twice with different passage points.
Colorectal CTOSs were incubated with each inhibitor for 24 hours. Whole cell proteins were extracted and each well was loaded with same amount of proteins (40 µg for NRF2 and 10 µg for H3). Phosphorylation of NRF2 was measured by western blotting. Blotting for histone H3 serves as loading control.
(A western blot detects proteins with antibodies after separation by electrophoresis.)

Test [4] concerns TIG‐3 embryonic fibroblasts. As to the kind of experiment: intracellular ROS, CellROX Deep Red flow cytometry, TIG-3. It is filed as cell-based, human. Conditions: treated 1 h (menadione 100 μmol/L, 30 min). How it is done:
as §1
(§2) One hour after each drug treatment, cells were stained with CellROX DeepRed and intracellular ROS were quantified with FACS. Upper: histogram of fluorescent signal is represented. Lower. representative mean fluorescent intensity scores are shown. Note that without drug treatment (Control), intracellular ROS is higher in OUMS36 and TIG3 (embryonic fibroblasts) but lower in DLD-1 and HCT116 (CRC cell lines). ROS in DLD-1 was increased by auranofin. ROS in HCT116 was increased by all the inhibitors tested. […]

In test [5] the test system is CRC cell lines. Also on record: method as in PMID 25591719. Conditions: cited from earlier work.
For test [6], the system named is OUMS‐36 embryonic fibroblasts. Briefly: intracellular ROS, CellROX Deep Red flow cytometry, OUMS-36. The class given is cell-based, human. Conditions: treated 1 h (menadione 100 μmol/L, 30 min). The method, then: as §1, §2
Test [7] has as its system DLD‐1 CRC cell line. As to the kind of experiment: intracellular ROS, CellROX Deep Red flow cytometry, DLD-1. The class given is cell-based, human. Conditions: treated 1 h (menadione 100 μmol/L, 30 min). The method, then: as §1, with “Since CTOSs contained abundant auto‐fluorescent cells, we defined FL2^+FL1^− cells as authentic PE‐positive (Fig. S4). Thus, CD44v9‐positive rate was defined as FL2^+FL1^−/total live cells and CD44v9‐positive fraction was further gated and split between CD44v9^low and CD44v9^high (Fig. S4), to calculate the mean fluorescent intensity of CD44v9^high fraction.” left out
One hour after each drug treatment, cells were stained with CellROX DeepRed and intracellular ROS were quantified with FACS. […]

On to `Cc1ccc(C)c(S(=O)(=O)Nc2ccc(O)c3ccccc23)c1` [CB83], for which the “TXNRD1 mRNA expression change” value in test [1] was “up‐regulated”. Besides, the figures for the “intracellular ROS response” value in test [2], in test [4] and in test [6] were “increase of ROS”, “no ROS increase” and “no ROS increase”, respectively. Moreover, in test [3], the NRF2 phosphorylation entry is listed as “efficiently phosphorylated”. Besides, the GSH/GSSG ratios entry in test [5] is listed as “failed to alter”. In test [5], the “NADPH/NADP+ ratios” value was “decreased”.

On to `CC1=CC(=O)c2ccccc2C1=O` [menadione, Menadione], for which the “intracellular ROS response” value in test [2] was “increase of ROS”; in test [7], “increase of ROS”; in test [4] it was “no ROS increase”; in test [6], “no ROS increase”.
